Where a SMILES comes first, the peptide text is derived from it. [ ]: non-standard residue; d: D form.
Legend:
[1] = system: HEK-Bcan cells; test: Flow cytometry blocking study with 50× molar excess of unlabeled peptide; format: cell-based, human; settings: fluorescein-conjugated peptide 1 μM
Procedure: Cells were washed once with PBS and then, treated with 1 mL of 2.5 mM EDTA to dissociate the cells. The EDTA was removed by centrifugation, and PBS supplemented with 10% FBS was added to create a single-cell suspension. All peptide stocks were dissolved in DMSO, and stored at −20° C. in the dark. Cells were incubated with each peptide (at the desired final concentration, between 1-10 μM) for 3 hrs at 37° C. in the dark under constant rotation. After incubation, cells were washed 3× with PBS with 10% FBS (by centrifugation at 7000 rpm for 3 mins each). Then, cells were resuspended in 3.7% formaldehyde for fixation, and finally washed once with PBS. Cells were evaluated for peptide uptake (mean fluorescence intensity) by flow cytometry (10,000-20,000 events).
For blocking studies, cells were dissociated as described above and resuspended in cold PBS with 10% FBS. Cells were then incubated with a 50× molar excess of unlabeled peptide for 10 mins on ice, before adding the corresponding FITC-labeled peptide at a final concentration of 1 μM and incubated for 1.5 hrs on ice. Cells were then washed with cold PBS with 10% FBS, fixed and analyzed by flow cytometry.

[2] = target: T1, BΔg-derived peptide (a.a. 535-548 of BΔg) (Homo sapiens, UniProt Q96GW7); test: Circular dichroism of peptide mixed with BΔg-derived peptide; format: binding; settings: CD spectrometry, 50 μM each peptide
T1 construct: purchased GenScript USA Inc; host or cells: chemical synthesis
Procedure: (§1) The BΔg peptide (or control BΔg(Scramble) peptide), BTP-7-FITC peptide, or a mixture of both (dissolved in Milli-Q H2O to a final concentration of 50 μM for each peptide) was loaded into a quartz cuvette (1 mm pathlength; Hellma Analytics Catalog #110-1-40). The cuvette was inserted into the Jasco J-815 circular dichroism spectropolarimeter, and the spectral scan measurement was conducted using the Spectrum Manager 2 software. The cuvette was rinsed with Milli-Q H2O in between each run. A blank (water) was run to establish the baseline for all samples. Scans were measured from 190 nm to 260 nm in a continuous mode (50-100 nm/min) at 20° C. To measure the BTP-7 structural change in the presence of either the BΔg (or control scramble) peptide, spectrum of the BΔg (or scramble) peptide alone was subtracted from the spectrum of the mixture, and then overlaid with the spectrum of BTP-7 alone for comparison. To investigate the structural changes in BTP-7 in a dose-dependent manner, 50 μM of BTP-7 peptide was loaded together with varying concentrations of either the BΔg (or control scramble) peptide. Similarly, the spectrum of each BΔg (or control scramble) peptide at the concentration was subtracted from the spectrum of the corresponding mixture, and then overlaid with the spectrum of BTP-7 alone for comparison.

[3] = system: BΔg-derived peptide (a.a. 535-548 of BΔg); test: as above; format: binding, human; settings: CD spectrometry, control peptide
Procedure: as §1

CC[C@@H](C)[C@@H](NC(=O)[C@H](N)[C@H](C)O)C(=O)N[C@H](CCCNC(=N)N)C(=O)N[C@H](CCCCN)C(=O)N[C@H](CC(C)C)C(=O)N[C@@H](C(=O)N[C@H](CCCNC(=N)N)C(=O)N[C@H](Cc1c[nH]cn1)C(N)=O)C(C)C [BTP-8] (H-[dT][dI][dR][dK][dL][dV][dR][dH]-NH2; N-terminus and C-terminus assumed)
uptake in HEK-Bcan cells in the presence of the blocking peptide [1]: reduced uptake
peptide conformation in the presence of the BΔg-derived peptide [2]: unaffected
peptide conformation in the presence of the scramble(BΔg) peptide [3]: unaffected

Source: patent US12527835B2, “Brevican-binding peptides for brain tumor imaging” (The Brigham and Women's Hospital, Inc., priority 2018, dated 2026)
